“And” between values parts separate entries of the source, which are not always exact repeats. Equal entries are not always repeated. Where two headings read alike, the source gives them in different places.
Experiments:
[1] = system: PC-3; set-up: method as in PMID 34681843; conditions: PC-3, AR negative, three days, MTS; cited from earlier work
[2] = system: LAPC-4 xenografts; assay: Cholesterol determination in tumor, liver, plasma (kit, method A); assay type: in vivo, mice; conditions: 10 mg/kg PO, NS vs CTL
Description: A cholesterol quantification kit provided by Sigma-Aldrich (Catalog Number MAK043) was used following the manufacturer’s instructions to determine the concentration of total cholesterol, free cholesterol, and cholesteryl ester in samples. The cholesterol contents were measured in samples from two different protocols. […] Secondly, in tumor, liver, and plasma obtained at the end of the LAPC-4 xenograft experiment (control group and the group treated with RM-581 at 10 mg/kg/PO).

[3] = Dosage of RM-581 in tumors and plasma (LC-MS/MS); assay type: in vivo, mice; conditions: for RM-581 in Plasma / RM-581 in Tumor / concentration at 3 h: 3 h after last treatment; for concentration at 3 h / Kp at 3 h: nude, mouse; for Kp at 3 h: tumor/plasma, ng/g = ng/mL assumed, read-out: Concentration Index (Tumor/Plasma)
Description: The mice were weighed at the start and end of the protocol. Tumor area (mm^2) was calculated twice a week using two perpendicular diameters (L and W), which were recorded using a caliper, and the formula L/2 × W/2 × π. The area measured on the first day of treatment was fixed at 100%. At the end of the studies and 3 h after the last treatment, the mice were terminally anesthetized, and their final body weights were measured. Tumors, liver, kidney, and total prostate were collected from mice during necropsy, while blood was collected by cardiac puncture. Tissues and plasma were immediately frozen at −80 °C until analysis.

[4] = system: 22Rv1; assay: PCa cell viability proliferation screening (MTS), 22Rv1; assay type: cell-based; conditions: Homo sapiens, 72 h, 22Rv1, AR positive, three days
Description: VCaP (4 × 10^4 cells/well) were seeded in 96-well plates in DMEM media supplemented with 10% fetal bovine serum (FBS), penicillin, streptomycin, and sodium pyruvate. 22Rv1 cells (2 × 10^3 cells/well) and LAPC-4 cells (6 × 10^3 cells/well) were seeded in 96-well plates in RPMI media supplemented with 10% FBS, penicillin, streptomycin, and sodium pyruvate. The cells were incubated at 37 °C in a 5% CO2 humidified atmosphere for 24 h before treatment with multiple concentrations of RM-581 dissolved in dimethyl sulfoxide (DMSO). The concentrations used were between 0.01 μM and 50 μM. Treatment lasted for 3 days for all the cell lines except VCaP cells, which were treated for 7 days due to slower proliferation rates. At the end of the assay, 20 μL of MTS (Cell Titer 96 Aqueous, Promega, Nepean, ON, Canada) were added to each well, and the mixture was incubated for 4 h at 37 °C. The plates were subsequently analyzed at 490 nm using a Tecan M-200 microplate reader (Männedorf, Switzerland).

C#C[C@]1(O)CC[C@H]2[C@@H]3CCc4cc(OC)c(N5CCN(C(=O)[C@@H]6CCCN6C(=O)c6ccc7ccccc7n6)CC5)cc4[C@H]3CC[C@@]21C [RM-581]
IC50 [1]: 1200 nM | F-CHOL (free cholesterol), liver [2]: 2410 ± 10 (NS) µg/g | F-CHOL (free cholesterol), plasma [2]: 403 ± 120 (NS) µg/mL | F-CHOL (free cholesterol), tumor [2]: 3270 ± 236 (NS) µg/g | T-CHOL (total cholesterol), liver [2]: 2440 ± 475 (NS) µg/g | T-CHOL (total cholesterol), plasma [2]: 1820 ± 500 (NS) µg/mL | T-CHOL (total cholesterol), tumor [2]: 4543 ± 2476 (NS) µg/g | RM-581 in Plasma ([3]; 3 mg/kg PO): 15 ng/mL and 0.023 µM | RM-581 in Tumor ([3]; 3 mg/kg PO): 50 ng/g and 0.077 µM | RM-581 in Plasma ([3]; 10 mg/kg PO): 30 ng/mL and 0.046 µM | RM-581 in Tumor ([3]; 10 mg/kg PO): 300 ng/g and 0.464 µM | RM-581 in Plasma ([3]; 30 mg/kg PO): 171 ng/mL and 0.265 µM | RM-581 in Tumor ([3]; 30 mg/kg PO): 940 ng/g and 1.465 µM | concentration at 3 h ([3]; plasma, 30 mg/kg PO, read-out: RM-581 in Plasma): 171 ng/mL | concentration at 3 h ([3]; plasma, PO, read-out: RM-581 in Plasma): 15 ng/mL | Kp at 3 h ([3]; 3 mg/kg PO): 3.3 | Kp at 3 h ([3]; 10 mg/kg PO): 10 | Kp at 3 h ([3]; 30 mg/kg PO): 5.5 | concentration at 3 h ([3]; tumor, 30 mg/kg PO, read-out: RM-581 in Tumor): 940 ng/g | concentration at 3 h ([3]; tumor, PO, read-out: RM-581 in Tumor): 50 ng/g | IC50 [4]: 1380 nM

Reference: article PMC10252594 (Cancers, 2023)
